Series [1] relates to alopecia areata in grafted C3H/HeJ mice. To be noted: for CD8+NKG2D+ T cells in skin and cutaneous lymph nodes: flow cytometry; for ALADIN score / transcriptional signature / GEDI (CTL and IFN signatures): skin; for development / onset of alopecia areata: systemic treatment from time of grafting. (In flow cytometry, cells or beads pass a laser one at a time.)
Description: Alopecia areata is graded based on severity, location of inflammatory cells, types and relative numbers of inflammatory cells (granulocytes, mast cells, lymphocytes), follicular dystrophy, etc.
Protocol #1: In the prevention setting, recipient mice will be treated beginning the first week after grafting.
Transfer of Alopecia Areata using grafted C3H/HeJ skin. Normal-haired C3H/HeJ mice were grafted at 8 weeks of age (during the second telogen) with skin from a C3H/HeJ mouse that developed AA spontaneously, as described previously^7. In brief, mice spontaneously affected with AA were euthanized, full thickness skin grafts of approximately 2 cm in diameter were removed and grafted to normal-haired C3H/HeJ mice.
Flow cytometric analysis of skin and cutaneous lymph nodes. To make a single cell suspension of mouse skin, fat was removed from the overlying skin in cold PBS and then incubated in collagenase type I (2 mg/ml in PBS) at 32° C. for 75 minutes. After digestion the skin was minced in RPMI/10% fetal bovine serum, filtered through a 70 mM cell strainer, and centrifuged at 1100 g for 5 minutes. The pellet was resuspended in RPMI/10% fetal bovine serum, filtered through a 40 mM cell strainer and spun at 400 g for 5 mins. The pellet was resuspended in FACs buffer (PBS/5% BSA), DAPI to gate on live cells and staining antibodies (listed in Supplemental Data). Cutaneous lymph nodes were pooled minced in RPMI, filtered through a 40 mM cell strainer, centrifuged at 400 g for 5 minutes stained and analysed on a BD LSR II flow cytometer.
Prevention and Treatment Studies. For prevention studies, mice were treatment beginning the day of grafting (n=5-10 mice per group).
(§1) ALADIN scores. The IFN and CTL signatures were used to develop a bivariate score statistic. Individual signature IFN and CTL scores were determined following procedures used in human SLE^,S9,S10. The sets of genes selected to comprise our IFN and CTL signatures were CD8A, GZMB, and ICOS for the CTL signature, and CXCL9, CXCL10, CXCL11, STAT1, and MX1 for the IFN signature. The scores for the prevention mice were calculated in relation to the sham mice; whereas, the scores for the topical treatment experiments were calculated relative to all the samples at week zero.
For series [2], the system named is C3H/HeJ mice with long-standing AA. To be noted: for CD8+NKG2D+ T cells in treated skin: flow cytometry.
Protocol: (§2) To make a single cell suspension of mouse skin, fat was removed from the overlying skin in cold PBS and then incubated in collagenase type I (2 mg/ml in PBS) at 32° C. for 75 minutes. After digestion the skin was minced in RPMI/10% fetal bovine serum, filtered through a 70 mM cell strainer, and centrifuged at 1100 g for 5 minutes. The pellet was resuspended in RPMI/10% fetal bovine serum, filtered through a 40 mM cell strainer and spun at 400 g for 5 mins. The pellet was resuspended in FACs buffer (PBS/5% BSA), DAPI to gate on live cells and staining antibodies (listed in Supplemental Data). Cutaneous lymph nodes were pooled minced in RPMI, filtered through a 40 mM cell strainer, centrifuged at 400 g for 5 minutes stained and analysed on a BD LSR II flow cytometer.
as §1
Series [3] concerns C3H/HeJ mice with long-standing alopecia areata. To be noted: for CD8+NKG2D+ T cells in skin and cutaneous lymph nodes: flow cytometry; for hair regrowth / reversal of alopecia areata: systemic (pump), established AA.
Protocol: as §2
For series [4], the system named is telogen hair follicles of normal C57BL/6 mice. Nature of the series: induction of anagen by topical treatment of normal mice in telogen. To be noted: for induction of anagen: topical, mice in telogen; for induction of anagen / proliferation in the telogen hair follicle (Ki67) / keratinocyte matrix cells: vs vehicle. It is filed as in vivo, mouse. The protocol: 7-8 weeks old animals in telogen were treated with controls or JAK STAT inhibitors.
Right half of each mouse was administered topical drug, left half of each mouse was treated with DMSO alone.
To test whether inhibition of JAK-STAT signaling could therefore trigger the telogen-to-anagen transition, a topical JAK3 inhibitor was applied to test whether anagen could be induced in normal mouse skin in telogen.

In a further series the test system is IL-15 signaling. To be noted: human whole blood assays; cited from earlier work.
Another series has as its system dermal sheath cells. Nature of the series: IL-15-induced LAK cell cytotoxicity against dermal sheath cells. In kind it is cell-based, mouse. The protocol: In vitro cytotoxicity assays. Determination of specific killing of target cells was performed using CFSE-labeled DS cells at targets mixed with different ratios of effector cells incubated for 5 hours at 37° C. 5% CO2 with or without neutralizing rat anti-mouse NKG2D antibody (20 ug/ml) (Biolegend, CX5). Specific lysis of DS cells was determined flow cytometrically by measuring cell death of CFSE+DS cells using Annexin V/7-AAD.

For series [5], the system named is IL-15 triggered pSTAT3 activation. The experiment in a line: IL-15-induced Stat3 activation in T cells. It is filed as cell-based. To be noted: T cells / CTL effectors.
For series [6] the following is noted: C3H/HeJ, mouse, in vivo, 10 mg/kg/day.
For the next series, the system named is human embryonic scalp. The experiment in a line: drug treatment of human fetal scalp in vitro, hair follicle morphogenesis. Also on record: dose or concentration left out as unconfirmed. In kind it is cell-based. To be noted: human embryonic scalp at 20 weeks, vs DMSO.
The conditions of series [7]: rodent; cited from earlier work.
Series [8] deals with Th1 and Th17 transcript markers and keratin 16. To be noted: cited from earlier work.
For series [9] the following is noted: all dose groups; cited from earlier work.
The subject of series [10] is epidermal thickening and dermal inflammation. To be noted: in vivo; cited from earlier work.
For series [11] the following is noted: Active (n = 149); cited from earlier work.
The mark [12] stands for this setting: topical vs systemic administration.

Entries after “also recorded” stand apart in the source; their conditions may differ. Where two headings read alike, the source gives them in different places.

Description for human embryonic scalp: Skin was harvested and sectioned and assessed for hair follicle morphology.

In the case of tofacitinib, in series [1] (listed as JAK3 PTKi), the “CD8+NKG2D+ T cells in skin and cutaneous lymph nodes” value is reported as “eliminating expansion”; the “development / onset of alopecia areata” value is “effectively prevented”. Also, in series [1] (listed as JAK3i), the “CD8+NKG2D+ T cells in skin and cutaneous lymph nodes” value is “significantly decreased”. For the same compound, in [1] (listed as JAK3 inhibitor), the “CD8+NKG2D+ T cells in skin and cutaneous lymph nodes” value was “completely eliminated”; the “development / onset of alopecia areata” value is on record as “do not develop alopecia”. Besides, in [1] (immunohistochemical staining), the “expression of CD4, CD8, MHC class I and II in skin” value is reported as “significantly decreased”. The “inflammatory biomarkers in the skin, including MHC molecules and IFN signature” value in [1] (mouse, in vivo) is recorded as “ablating”. The “inflammatory profiles (skin microarray, T cell infiltrate stains, serum markers)” value in series [1] (osmotic pump) is given as “decreased inflammatory profiles”. The “mice that developed alopecia” value in series [1] (osmotic pump, by six weeks following transplantation, PBS 4/4, vehicle pump 2/2) was 0/5. In series [1], the “ALADIN score / transcriptional signature” value was “normalization”; the “GEDI (CTL and IFN signatures)” value is “reduction”. Besides, the “CD8+NKG2D+ T cells in treated skin” value in series [2] is “significantly decreased”. Further, in series [2] (setting [12]), the “pigmentation of regrown hair coat” value is on record as “darkly pigmented” and the “speed of hair regrowth” value is recorded as “very rapid”. Moreover, in series [3] (listed as JAK3i), the “CD8+NKG2D+ T cells in skin and cutaneous lymph nodes” value was “eliminated”; the “hair regrowth / reversal of alopecia areata” value (from here on “hair regrowth / reversal”) is reported as “induced hair regrowth all over the body”. In series [3] (listed as JAK3 inhibitor), the “CD8+NKG2D+ T cells in skin and cutaneous lymph nodes” value is “elimination; also recorded: devoid”; the “hair regrowth / reversal” value was “exhibit hair regrowth”. In addition, the “persistence of effect after cessation of treatment” value in series [3] (mouse, in vivo) is recorded as 2-3 months. Moreover, in [4] (mouse, in vivo), the “effect on anagen induction compared with SAG” value is on record as “comparable”; the “time to induction and growth of robust pigmented anagen hairs” value was 1-2 weeks. Moreover, the induction of anagen entry in [4] is reported as “striking anagen induction”.
`CC1CCN(C(=O)CC#N)CC1N(C)c1ncnc2[nH]ccc12` (stereo not drawn) [tofacitinib]: the “development of cutaneous lymphadenopathy” value in [1] (10 mg/kg/day Alzet pump, 5 mice) is “None”. In addition, in series [1], the “CD8+NKG2D+ T cells in skin and cutaneous lymph nodes” value is “eliminated; also recorded: prevented”; the “ALADIN score / transcriptional signature” value was “prevented the emergence”; the “GEDI (CTL and IFN signatures)” value is reported as “prevented the emergence”; the “development / onset of alopecia areata” value was “prevents and None and prevented and inhibited”. In addition, the “IFN-response chemokines and markers of CD8 cytotoxic effectors in skin” value in series [1] (microarray, 13 weeks of treatment vs PBS) was “elimination”. Besides, in series [1] (mouse, in vivo), the “HF NKG2DL expression (e.g. H60 by immunostain)” value was “reduced although not completely eliminated”; the “durability of disease prevention after treatment withdrawal” value was found to be 12 weeks; the “histological signs of inflammation in skin” value was “no histological signs of inflammation”; the “inflammatory biomarkers in the skin, including MHC molecules and IFN signature” value is on record as “down-regulated”. Moreover, in series [1] (photomicrographs, FIG. 53), the inflammatory infiltrate result is “normalizes”. In addition, the “development / onset of alopecia areata” value in series [1] (listed as CP690550) is reported as “prevention of AA”. Further, in series [2] (additional 8 weeks after withdrawal), the “disease recurrence after treatment withdrawal” value is on record as “no evidence of disease recurrence”. For the same compound, the “untreated areas on the abdomen” value in series [2] (drug applied to back skin only) is “remained alopecic”. In series [2], the “CD8+NKG2D+ T cells in treated skin” value was “disappearance”. Moreover, in [2] (mouse, in vivo), the ALADIN transcriptional signature result is recorded as “normalization”, the “durability of effects after cessation of treatment” value is given as 2-3 months and the “histological markers of disease” value is recorded as “reversal”. In series [2] (topical 0.5% daily), the “time to full coat of hair” value is given as ≤ 7 weeks. Further, the “time to complete hair regrowth” value in series [2] (topical therapy) was ≤ 12 weeks. Also, the “reversal of established / long-standing AA” value in series [2] (topical, daily, 0.5%) was “highly effective; also recorded: reversal”. The IL-15 signaling result in the series on IL-15 signaling is listed as “inhibit”. For the same compound, in the series with dermal sheath cells, the “IL-15-induced LAK cell cytotoxic function (dermal sheath cell cytotoxicity)” value was “inhibit”. Further, the “IL-15-induced Stat3 (pSTAT3) activation” value in series [5] is recorded as “block; also recorded: inhibits”. Besides, the “hair regrowth / reversal” value in series [3] was “complete”. For the same compound, in [4] (1% daily for 3 weeks), the durability of effect entry is “more than 1 month”. Further, in series [4] (mouse, in vivo), the “number of hair follicles vs vehicle treated” value was “greater” and the “thickness of hair follicles vs vehicle treated” value is recorded as “greater”. Also, in series [4], the induction of anagen result is “marked induction of anagen” and the “proliferation in the telogen hair follicle (Ki67) / keratinocyte matrix cells” value is “marked proliferation”. Besides, the serum levels in series [6] lay in the range of 30 to 40 nM. Moreover, the “hair follicle morphology, stage of first anagen of morphogenesis” value with human embryonic scalp is listed as “more advanced”.
`N#CCC(C1CCCC1)n1cc(-c2ncnc3[nH]ccc23)cn1` (stereo not drawn) [INCB018424]: in series [7], the “half-life (t1/2)” value was 3 to 6 h. Moreover, in [8] (psoriasis subjects, topical), the clinical responses result is “rapid clinical responses” and the “cutaneous Th1/Th17 cytokine responses” value is given as “normalization”. Moreover, the “Th1 and Th17 transcript markers and keratin 16” value in [8] (topical treatment) is listed as “decreased”. The “Total Lesion Score, decrease over vehicle” value in series [9] is reported as ≥ 2 ×. In series [10], the “epidermal thickening and dermal inflammation” value is “markedly reduces”; the pathological skin thinning result was “No pathological skin thinning is observed”. Moreover, in series [11], the “Adverse event: Abdominal pain, number” value is 3; the “Adverse event: Abdominal pain, value in brackets” value is “(2.0)”; the “Adverse event: Application site irritation, pruritus, number” value is given as 14; the “Adverse event: Application site irritation, pruritus, value in brackets” value is listed as “(9.3)”. Moreover, in series [11], the “Adverse event: Back Pain, value in brackets” value is “(3.4)”; the “Adverse event: Headache, number” value is given as 4; the “Adverse event: Headache, value in brackets” value is “(2.7)”; the “Adverse event: Influenza, number” value is 4. In series [11], the “Adverse event: Influenza, value in brackets” value was “(2.7)”; the “Adverse event: Nasopharyngitis, number” value is 10; the “Adverse event: Nasopharyngitis, value in brackets” value is “(6.7)”; the “Adverse event: Sinusitis, number” value is recorded as 6. In series [11], the “Adverse event: Sinusitis, value in brackets” value is listed as “(4.0)”; the “Adverse event: Upper respiratory tract infection, number” value is 10; the “Adverse event: Upper respiratory tract infection, value in brackets” value was “(6.7)”.
As for `CNC1CCC(N(Cc2cccc(-c3ccncc3)c2)C(=O)c2sc3ccccc3c2Cl)CC1` (stereo not drawn) [SAG], the “time to induction of anagen” value in [4] (post treatment) was in the range of 4 to 7 days. In addition, in series [4], the “proliferation in the telogen hair follicle (Ki67) / keratinocyte matrix cells” value is listed as “marked proliferation”.

These data come from patent US11806555B2, “Methods for treating hair loss disorders” (THE TRUSTEES OF COLUMBIA UNIVERSITY IN THE CITY OF NEW YORK, priority 2010, dated 2023).
